pIC50: −log10 of the molar value.
How the values were obtained:
Assay type in all cases: cell-based
[1] = system: T47D (PI3Kα H1047R mutant) cells; assay: Cell viability (CellTiter-Glo 2.0) in T47D cells; conditions: Homo sapiens, T47D, 72 h, approximately 72 hours
Experimental: (§1) This Example illustrates that representative compounds of the invention decrease the viability of cells.
(§2) The ability of a compound of Formula (I) to decrease the viability of cells was measured using CellTiter-Glo 2.0 (CTG) Luminescent Cell Viability Assay (#G9241) obtained from Promega (Madison, WI).
(§3) To prepare assay plates for viability assays, cells were trypsinized, resuspended in fresh media, and viable cells were counted utilizing trypan blue exclusion. T47D, SKBR3, or MKN1 cells were seeded at 1000 cells in 30 μl per well in a solid white flat bottom 384 cell culture plate (Perkin Elmer #6007680) and incubated at 37° C. overnight.
(§4) Assay day 1, cells were dosed using an Echo Liquid Handler (Beckman Coulter) with compounds at a 10 μm starting concentration and serially diluted (1:4) for a total of 10 concentrations. Cells were incubated for approximately 72 hours with the compounds (solubilized in DMSO) at 37° C. After 72 hours of treatment, cell plates were equilibrated to room temperature before adding 15 μl of CTG to each well, plates were then covered in aluminum foil to protect from light, incubated at room temperature for 30 minutes on a microtiter plate shaker, and luminescence readings were collected using a CLARIOstar microplate reader (BMG Labtech, Germany). Percent of vehicle control values were plotted as log(inhibitor) vs. response—Variable slope (four parameters) for curve fitting and IC50 values were determined using XLfit.

[2] = system: SKBR3 (PI3Kα wild type) cells; assay: Cell viability (CellTiter-Glo 2.0) in SKBR3 cells; conditions: Homo sapiens, SK-BR-3; SKBR3 (PI3Kα wild type) cells, approximately 72 hours, CellTiter-Glo 2.0; read-out: SKBR3 (WT) Viability IC50
Experimental: as §1, §2, §3, §4

[3] = system: pAKT in T47D (PI3Kα H1047R mutant) cells; assay: Inhibition of pAKT (alphaLISA Surefire Ultra AKT 1/2/3 pS473) in T47D cells; conditions: Homo sapiens; T47D (PI3Kα H1047R mutant) cells, 24 hr compound incubation, alphaLISA pS473; read-out: T47D (H1047R) pAKT 24 hr (IC50)
Experimental: The ability of a compound of Formula (I) to inhibit the formation of pAKT was measured using alphaLISA Surefire Ultra AKT 1/2/3 (pS473) Assay Kit (#ALSU-PAKT-B50K) was obtained from Perkin Elmer (Waltham, MA).
To prepare assay plates for pAKT alphaLISA assays, cells were trypsinized, resuspended in fresh media, and viable cells were counted utilizing trypan blue exclusion. Prior to seeding, cells were washed with PBS and resuspended in HBSS (Gibco, #14025092). T47D (12,000/w), SKBR3 (12,000/w), or MKN1 (24,000/w) cells were seeded at 12 μl per well in a solid white flat bottom 384 cell culture plate (Perkin Elmer #6007680).
Immediately after seeding, cells were dosed using an Echo Liquid Handler (Beckman Coulter) with compounds at a 10.4 μm starting concentration and serially diluted (1:4) for a total of 10 concentrations. 14 vehicle (DMSO) and 14 positive control (Alpelisib @3.125 μm) wells were included on each assay plate. Cells were incubated with the compounds (solubilized in DMSO) for approximately 24 hours at 37° C. After 24 hours of treatment, cells were lysed with 3 μl of the 5× lysis buffer (provided and incubated at room temperature for 15 min on a microtiter plate shaker). Once cells were sufficiently lysed, 7.5 μl of the acceptor bead mix (made using the manufacturers recommended dilutions) was added to each well and left on the microtiter plate shaker for 1 min prior to incubating plates at room temperature for 1 hour, in the absence of light. After 1 hour of incubation with the acceptor bead mix, 7.5 μl of the donor bead mix (made using the manufacturers recommended dilutions) was added to each well and left on the microtiter plate shaker for 1 min prior to incubating plates at room temperature overnight in the absence of light. Plates were then imaged the following day using a CLARIOstar microplate reader (BMG Labtech, Germany).
Percent of control values were calculated by subtracting the average signal from the positive control (alpelisib) treated wells from all treated wells (including DMSO control wells) and then divided by the average signal from the vehicle DMSO treated control wells. Percent of vehicle control values were plotted as log(inhibitor) vs. response—Variable slope (four parameters) for curve fitting and IC50 values were determined using XLfit.

Structure (SMILES) | pIC50 [1] | pIC50 [2] | pIC50 [3]
Cc1cc([C@@H](C)Nc2ccc(Cl)nc2C(=O)O)c2nc(N3CC[S+]([O-])CC3)c(C#N)nc2c1 [Example 107, (R)-6-chloro-3-((1-(2-cyano-7-methyl-3-(1-oxidothiomorpholino)quinoxalin-5-yl)ethyl)amino)picolinic acid] | 6.67 | < 5.00 | 
Cc1cc([C@@H](C)Nc2ccc(Cl)nc2C(=O)O)c2nc(N3CC4(COC4)C3)c(C#N)nc2c1 [Example 60, (R)-6-chloro-3-((1-(2-cyano-7-methyl-3-(2-oxa-6-azaspiro[3.3]heptan-6-yl)quinoxalin-5-yl)ethyl)amino)picolinic acid] | 7.68 | < 5.00 | 
Cc1cc([C@@H](C)Nc2ccc(Cl)nc2C(=O)O)c2nc(N3CCC(F)(F)[C@H](C)C3)c(C#N)nc2c1 [Example 78A, 6-chloro-3-(((R)-1-(2-cyano-3-((R)-4,4-difluoro-3-methylpiperidin-1-yl)-7-methylquinoxalin-5-yl)ethyl)amino)picolinic acid] | 6.90 | 5.15 | 
Cc1cc([C@@H](C)Nc2ccccc2C(=O)O)c2nc(N3CCC(F)(F)C3)c(C#N)nc2c1 [Example 71, (R)-2-((1-(2-cyano-3-(3,3-difluoropyrrolidin-1-yl)-7-methylquinoxalin-5-yl)ethyl)amino)benzoic acid] | 6.56 | < 5.00 | 
Cc1cc([C@@H](C)Nc2ccc(Cl)nc2C(=O)O)c2nc(N3CCc4cc(F)ccc4C3)c(C#N)nc2c1 [Example 87, (R)-6-chloro-3-((1-(2-cyano-3-(6-fluoro-3,4-dihydroisoquinolin-2(1H)-yl)-7-methylquinoxalin-5-yl)ethyl)amino)picolinic acid] | 7.05 | 5.03 | 
Cc1cc([C@@H](C)Nc2ccc(Cl)nc2-c2nnn[nH]2)c2nc(N3CCOCC3)c(C#N)nc2c1 [Example 854, (R)-5-(1-((6-chloro-2-(1H-tetrazol-5-yl)pyridin-3-yl)amino)ethyl)-7-methyl-3-morpholinoquinoxaline-2-carbonitrile] | 7.28 | 5.36 | 
Cc1cc([C@@H](C)Nc2ccc(Cl)nc2C(=O)O)c2nc(N3CCC(F)(F)CC3)c(C3CC3)nc2c1 [Example 48, (R)-6-chloro-3-((1-(2-cyclopropyl-3-(4,4-difluoropiperidin-1-yl)-7-methylquinoxalin-5-yl)ethyl)amino)picolinic acid] | 7.02 | < 5.00 | 
CO[C@@H]1CCN(c2nc3c([C@@H](C)Nc4ccc(Cl)nc4C(=O)O)cc(C)cc3nc2C#N)C1 (single isomer, unassigned) [Example 110A] | 6.53 | < 5.00 | 
Cc1cc([C@@H](C)Nc2ccc(Cl)nc2C(=O)O)c2nc(NCCC(=O)N(C)C)c(C#N)nc2c1 [Example 125, (R)-6-chloro-3-((1-(2-cyano-3-((3-(dimethylamino)-3-oxopropyl)amino)-7-methylquinoxalin-5-yl)ethyl)amino)picolinic acid] | 6.79 |  | 8.57
Cc1cc([C@@H](C)Nc2ccc(Cl)nc2C(=O)O)c2nc(N3CC(C)(C)C(F)(F)C3)c(C#N)nc2c1 [Example 123, (R)-6-chloro-3-((1-(2-cyano-3-(3,3-difluoro-4,4-dimethylpyrrolidin-1-yl)-7-methylquinoxalin-5-yl)ethyl)amino)picolinic acid] | 6.56 |  | 7.18
Cc1cc([C@@H](C)Nc2ccc(Cl)nc2C(=O)O)c2nc(N3CCO[C@@H](C)C3)c(C#N)nc2c1 [Example 260, 6-chloro-3-(((R)-1-(2-cyano-7-methyl-3-((S)-2-methylmorpholino)quinoxalin-5-yl)ethyl)amino)picolinic acid] | 7.13 |  | 8.72

Further compounds by rising pIC50 [1], results first:

pIC50 [1] | pIC50 [2] | pIC50 [3] | Structure (SMILES)
5.36 | < 5.00 |  | Cc1cc([C@@H](C)Nc2ccccc2C#N)c2nc(N3CCOCC3)c(C#N)nc2c1 [Example 853, (R)-5-(1-((2-cyanophenyl)amino)ethyl)-7-methyl-3-morpholinoquinoxaline-2-carbonitrile]
5.97 | 5.16 |  | Cc1cc([C@@H](C)Nc2ccc(Cl)nc2C#N)c2nc(N3CCOCC3)c(C#N)nc2c1 [Example 855, (R)-5-(1-((6-chloro-2-cyanopyridin-3-yl)amino)ethyl)-7-methyl-3-morpholinoquinoxaline-2-carbonitrile]
6.53 | < 5.00 |  | CO[C@H]1CCN(c2nc3c([C@@H](C)Nc4ccccc4C(=O)O)cc(C)cc3nc2C#N)C1 (single isomer, unassigned) [Example 72A]
6.60 | < 5.00 |  | Cc1cc([C@@H](C)Nc2ccccc2C(=O)O)c2nc(N3CCC(F)(F)[C@@H](C)C3)c(C#N)nc2c1 [Example 79A, 2-(((R)-1-(2-cyano-3-((S)-4,4-difluoro-3-methylpiperidin-1-yl)-7-methylquinoxalin-5-yl)ethyl)amino)benzoic acid]
6.72 |  | 8.17 | Cc1cc([C@@H](C)Nc2ccc(Cl)nc2C(=O)O)c2nc(N3C[C@@H]4[C@H](CO)[C@@H]4C3)c(C#N)nc2c1 [Example 163, 6-chloro-3-(((R)-1-(2-cyano-3-((1R,5S,6S)-6-(hydroxymethyl)-3-azabicyclo[3.1.0]hexan-3-yl)-7-methylquinoxalin-5-yl)ethyl)amino)picolinic acid]
7.02 | < 5.00 |  | CO[C@H]1CCN(c2nc3c([C@@H](C)Nc4ccc(Cl)nc4C(=O)O)cc(C)cc3nc2C#N)C1 (single isomer, unassigned) [Example 110B]
7.02 | < 5.00 |  | Cc1cc([C@@H](C)Nc2ccc(Cl)nc2C(=O)O)c2nc(NCC3(C)CC3(F)F)c(C#N)nc2c1 (stereo partly drawn) [Example 74, 6-chloro-3-(((1R)-1-(2-cyano-3-(((2,2-difluoro-1-methylcyclopropyl)methyl)amino)-7-methylquinoxalin-5-yl)ethyl)amino)picolinic acid]
7.11 | 5.06 |  | Cc1cc([C@@H](C)Nc2ccc(Cl)nc2C(=O)O)c2nc(NC3CC(F)(F)C3)c(C#N)nc2c1 [Example 77, (R)-6-chloro-3-((1-(2-cyano-3-((3,3-difluorocyclobutyl)amino)-7-methylquinoxalin-5-yl)ethyl)amino)picolinic acid]
7.15 | < 5.00 |  | Cc1cc([C@@H](C)Nc2ccc(Cl)nc2C(=O)O)c2nc(N3CC4CC3C(F)(F)C4)c(C#N)nc2c1 (single isomer, unassigned) [Example 10]
7.15 |  | 8.59 | Cc1cc([C@@H](C)Nc2ccc(Cl)nc2C(=O)O)c2nc(N3CC[C@@H](CO)C3)c(C#N)nc2c1 [Example 159, 6-chloro-3-(((R)-1-(2-cyano-3-((R)-3-(hydroxymethyl)pyrrolidin-1-yl)-7-methylquinoxalin-5-yl)ethyl)amino)picolinic acid]
7.20 | < 5.00 |  | Cc1cc([C@@H](C)Nc2ccccc2C(=O)O)c2nc(N3CCc4ccncc4C3)c(C#N)nc2c1 [Example 89, (R)-2-((1-(2-cyano-3-(3,4-dihydro-2,7-naphthyridin-2(1H)-yl)-7-methylquinoxalin-5-yl)ethyl)amino)benzoic acid]
7.32 |  | 8.34 | Cc1cc([C@@H](C)Nc2ccc(Cl)nc2C(=O)O)c2nc(N3CCC(=O)CC3)c(C#N)nc2c1 [Example 161, (R)-6-chloro-3-((1-(2-cyano-7-methyl-3-(4-oxopiperidin-1-yl)quinoxalin-5-yl)ethyl)amino)picolinic acid]

Reference: patent US20240391882A1 (Mirati Therapeutics, Inc., priority 2023, published 2024)
